Reference: US20030143634A1, “Method to detect interactions between cellular components in intact living cells, and to extract quantitative information relating to those interactions by fluorescence redistribution” (Biolmage A/S, priority 2001, published 2003)

Tests used:
[1] = tested on: transcription factor-based detection system; settings: data supplied by ARIAD Pharmaceuticals (RPD kit fact sheet); cited from earlier work
[2] = target: T1, CAD:CAD link between mediator and detectable conjugates (Homo sapiens, UniProt P62942, F37M); test: 3-part ActinPaint iGRIP system, interaction inhibitor dose-response (extraction procedure, plate reader); assay type: cell-based; settings: CHO cells
T1 construct: expressed in transfected cells; host or cells: CHO
From the text: (§1) In this specific example, the 3 components of this second system were as follows:
(§2) 1) The anchor conjugate was made by fusing the F-actin binding domain of α-actinin (amino acids 1-133 of full protein sequence) to FRB(T2098L) [ps1570] (also referred to as FRB*). The cellular localization of the anchor could be detected with an antibody directed against the HA-tag included in the anchor fusion protein
(§3) 2) The mediator conjugate [ps1556] comprised wild-type FKBP protein fused to tandem repeats of FKBP(F36M), a mutant form of the protein that is known as FM and also CAD, and the coding plasmid for which was obtained from ARIAD Pharmaceuticals
(§4) 3) The detectable conjugate was made by fusing tandem repeats of CAD to EGFP [ps1547].
(§5) The three conjugates are depicted in diagrammatic form in FIG. 5a. CAD proteins spontaneously homodimerize, so mediator and detectable conjugates are normally linked together in the 3-part system (FIG. 5b). Therefore in this example, the protein interaction to be tested was the CAD:CAD link between mediator and detectable conjugates. […] The link between CAD proteins can be broken by ARIAD compound AP21998 (FIG. 5d). AP21998 was therefore used as the reference compound to validate the system. CHO cells were transfected and cultured essentially as described in Example 2, except the complement of plasmids required for the 2 and 3-part systems were transfected simultaneously rather than sequentially (as described in Example 2).
(§6) For compatibility with high throughput screening the cells were grown in microtitre plates for 16 hours from a seeding density of 1.0×10E5 cells per 400 μL, and an extraction procedure (described in Example 3) was used to remove mobile fluorescent components from cells, so that signal from immobile components could be measured. Plates were routinely stained with the nuclear dye Hoechst 22538 to enable correction of the immobile EGFP fluorescence signal from each well for cell density. […]
ActinPaint system. […] Plates were processed for extraction and nuclear staining then read in an Ascent plate reader. […]

[3] = target: T1, CAD:CAD link between mediator and detectable conjugates; test: 3-part Histone H2B iGRIP system, interaction inhibitor dose-response (extraction procedure, plate reader); assay type: cell-based; settings: CHO cells
From the text: as §1
1) The anchor conjugate was made by fusing histone H2B to FRB(T2098L) [ps1569] (also referred to as FRB*). The cellular localization of the anchor could be detected with an antibody directed against the HA-tag included in the anchor fusion protein
as §3, §4
as §5, with “system.” for “system. CHO cells were transfected and cultured essentially as described in Example 2, except the complement of plasmids required for the 2 and 3-part systems were transfected simultaneously rather than sequentially (as described in Example 2).”
(§7) For compatibility with high throughput screening the cells were grown in microtitre plates for 16 hours from a seeding density of 1.0×10E5 cells per 400 μL, and an extraction procedure (described in Example 3) was used to remove mobile fluorescent components from cells, so that signal from immobile components locked in the nucleus could be measured. Plates were routinely stained with the nuclear dye Hoechst 22538 to enable correction of the immobile EGFP fluorescence signal from each well for cell density.
Dose-response of this CAD-interaction inhibitor in the 3-part Histone H2B system could be compared with the compound's efficacy and potency in other systems, to determine if similar sensitivity to the inhibitor (and other inhibitors) could be expected from the Histone H2B system. […] Plates were processed for extraction and nuclear staining then read in an Ascent plate reader. […]

[4] = target: T2, FRB(T2098L) and FKBP (Homo sapiens, UniProt P42345+P62942, T2098L); test: 3-part Src(1-14) system, response to dimerizer; assay type: cell-based; settings: CHO cells, 500 nM AP21967 for 120 minutes
T2 construct: expressed in transfected cells; host or cells: CHO
From the text: as §1
1) The anchor conjugate was made by fusing c-Src(1-14) to FRB(T2098L) [ps1549]. The cellular localization of the anchor could be detected with an antibody directed against the HA-tag included in the anchor fusion protein
as §3, §4
as §5, with “CHO cells were transfected and cultured essentially as described in Example 2, except the complement of plasmids required for the 2 and 3-part systems were transfected simultaneously rather than sequentially (as described in Example 2).” left out
(§8) Without dimerizer present in the medium, cells from both 2- and 3-part Src(1-14) systems display a more or less uniform distribution of GFP fluorescence, throughout cytoplasmic and nuclear compartments (FIGS. 23a and 24a). […]

[5] = target: T2, FRB(T2098L) and FKBP; test: 3-part ActinPaint iGRIP system, response to dimerizer; assay type: cell-based; settings: CHO cells, 800 nM AP21967, 37° C.
From the text: as §1, §2, §3, §4
The three conjugates are depicted in diagrammatic form in FIG. 5a. […]
as §6

[6] = target: T2, FRB(T2098L) and FKBP; test: 2-part Histone H2B system, response to dimerizer and competition by FK506; assay type: cell-based; settings: CHO cells
Procedure: The 2-part assay also acts as counter screen for any compounds that may directly or indirectly affect the location of the anchor protein itself within the cell.
as §7
(§9) Signals from immobile EGFP-labelled components and from the nuclear stain were read on an fluorescence plate reader (Fluoroskan Ascent CF, Labsystems, Finland) equipped with appropriate filter sets (EGFP: excitation 485 nm, emission 527 nm; Hoechst 22538: excitation 355 nm, emission 460 nm).

[7] = target: T2, FRB(T2098L) and FKBP; test: 2-part Src(1-14) system, response to dimerizer; assay type: cell-based; settings: CHO cells, 500 nM AP21967 for 60 minutes
From the text: (§10) The first system consists of 2 parts, an anchor conjugated to FRB(T2098L) [plasmid construct ps1549] and a detectable conjugate comprising FKBP fused to EGFP [ps1208]. […] The 2-part assay also acts as counter screen for any compounds that may directly or indirectly affect the location of the anchor protein itself within the cell.
CHO cells were transfected and cultured essentially as described in Example 2, except the complement of plasmids required for the 2 and 3-part systems were transfected simultaneously rather than sequentially (as described in Example 2).
For selection of co-expressing cells, 2-part system cells transfected with ps1549+ps1208 were cultured with 1 mg/ml zeocin+5 μg/ml blasticidin HCl. Cells of the 3-part system were cultured with 1 mg/ml zeocin+5 μg/ml blasticidin HCl+0.5 mg/ml G418 sulphate.
This redistribution response to dimerizer is robust and can be competed by FK506. In the 3-part system, the response can also be competed by compound AP21998.
as §8, with “24a). Dimerizer addition results in recruitment of the CAD-linked mediator+detectable complexes to the plasma membrane (FIGS. 23b and 24b).” for “24a).”

[8] = target: T2, FRB(T2098L) and FKBP; test: 2-part ActinPaint system, response to dimerizer; assay type: cell-based; settings: CHO cells
Procedure: as §10, with “ps1570]” for “ps1549]”, “[ps1208]—these conjugates are depicted in FIG. 4a.” for “[ps1208].”
For compatibility with high throughput screening the cells were grown in microtitre plates for 16 hours from a seeding density of 1.0×10E5 cells per 400 μL, and an extraction procedure (described in Example 3) was used to remove mobile fluorescent components from cells, so that signal from immobile components could be measured. Plates were routinely stained with the nuclear dye Hoechst 22538 to enable correction of the immobile EGFP fluorescence signal from each well for cell density.
as §9, with “nm). […] For further experiments a dimerizer concentration of 800 nM for 2 hours was selected as giving adequate signal to background for extracted cells to be read on the Ascent plate reader.” for “nm).”

[9] = AP21998 greater than 5 μM plus 800 nM AP21967, 2 hours
[10] = 1000 nM AP21967, 2 hours, extraction procedure

| Structure (SMILES) | EC50 [1] [nM] | EGFP distribution in micrograph (FIG. 7c) ([2]; 5 μM AP21998 for 2 hours after 800 nM AP21967 for 60 minutes, continued presence of AP21967) | EGFP-label remaining on the F-actin aggregates [2, 9] | EC50 ([2]; co-treated with 800 nM AP21967, 2 hours, 37° C., read-out: EC50 for the prevention of recruitment / removal of EGFP-labelled components from the F-actin aggregates) [nM] | EGFP distribution in micrograph (FIG. 15c) ([3]; 800 nM AP21967 + 5 μM AP21998 for 2 hours) | EGFP-label remaining in the nuclei [3, 9] | EC50 ([3]; co-treated with 800 nM AP21967, 2 hours, 37° C., read-out: EC50 for the prevention of recruitment / removal of EGFP-labelled components from the nuclear compartment) [nM] | EGFP distribution in micrograph (FIG. 24b) [4] | time after which EGFP labelling of aggregates is clearly visible [5] [min] | time after which recruitment of fluorescence to the nuclei is visible ([6]; 800 nM AP21967, 37° C.) [min] | time to maximum response (recruitment to nuclei) ([6]; 800 nM AP21967, 37° C.) | increase of signal from immobile EGFP-labelled components relative to untreated cells [6, 10] | EGFP distribution in micrograph (FIG. 23b) [7] | time after which recruitment of fluorescence to F-actin aggregates is visible ([8]; 800 nM AP21967, 37° C.) [min] | increase of signal from immobile EGFP-labelled components relative to untreated cells [8, 10] |
| --- | --- | --- | --- | --- | --- | --- | --- | --- | --- | --- | --- | --- | --- | --- | --- |
| CC[C@H](C(=O)N1CCCCC1C(=O)O[C@H](CCc1ccc(OC)c(OC)c1)c1cccc(OCC(=O)NCCCN(C)C)c1)c1cc(OC)c(OC)c(OC)c1 (stereo partly drawn) [AP21998] | ~200 | The bright aggregates have dispersed into the cytoplasm | no EGFP-label remained on the aggregates | ~1100 | no nuclear accumulation | no EGFP-label remained in the nuclei | ~1800 | – | – | – | – | – | – | – | – |
| CO[C@H]1[C@@H](O)[C@H](C)C[C@H](C)/C=C/C=C/C=C(\C)[C@@H](c2c[nH]c3c(C)cccc23)C[C@@H]2CC[C@@H](C)[C@@](O)(O2)C(=O)C(=O)N2CCCC[C@H]2C(=O)O[C@H]([C@H](C)C[C@@H]2CC[C@@H](O)[C@H](OC)C2)C[C@H](O)[C@H](C)/C=C(\C)[C@H]1O [AP21967] | – | – | – | – | – | – | – | recruited to the plasma membrane | 15 | 2 | approximately 10 minutes | approximately 2 fold | recruited to the plasma membrane | 2 | approximately 3 fold |
